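Assay format: 96-well plates, 48-hour exposure. GI50 = concentration required for 50% inhibition of growth.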 Calls of active or inactive are those of the source. Rule as the data show it: active = GI50 up to about 1.1 µM and inactive = higher.
What was measured:
Experiment in all cases: DTP human tumour cell line panel, 48 h
BT-549 = system: BT-549
NCI-H23 = system: NCI-H23
K562 = system: K562
OVCAR-3 = system: OVCAR-3
OVCAR-8 = system: OVCAR-8
UACC-257 = system: UACC-257
MDA-MB-435 = system: MDA-MB-435
TK-10 = system: TK-10
RXF 393 = system: RXF 393
SK-OV-3 = system: SK-OV-3
HL-60 = system: HL-60
NCI/ADR-RES = system: NCI/ADR-RES
A549 = system: A549
CCRF-CEM = system: CCRF-CEM
UO-31 = system: UO-31
MDA-N = system: MDA-N
SF-268 = system: SF-268
MOLT-4 = system: MOLT-4
SK-MEL-5 = system: SK-MEL-5
LOX IMVI = system: LOX IMVI

Structure (SMILES) | GI50 (BT-549) | GI50 (NCI-H23) | GI50 (K562) | GI50 (OVCAR-3) | GI50 (OVCAR-8) | GI50 (UACC-257) | GI50 (MDA-MB-435) | GI50 (TK-10) | GI50 (RXF 393) | GI50 (SK-OV-3) | GI50 (HL-60) | GI50 (NCI/ADR-RES) | GI50 (A549) | GI50 (CCRF-CEM) | GI50 (UO-31) | GI50 (MDA-N) | GI50 (SF-268) | GI50 (MOLT-4) | GI50 (SK-MEL-5) | GI50 (LOX IMVI)
C1=N\CCOCC/N=C/c2ccccc2OCc2cccc(n2)COc2ccccc2/1 | 6.76 µM (inactive) | 12.5 µM (inactive) | 2.38 µM (inactive) | 3.51 µM (inactive) | 6.38 µM (inactive) | 8.11 µM (inactive) | 0.778 µM (active) | 6.27 µM (inactive) | 9.59 µM (inactive) | 11.2 µM (inactive) | 5.07 µM (inactive) | 3.39 µM (inactive) | > 25 µM (inactive) | 4.76 µM (inactive) | 7.98 µM (inactive) | 0.942 µM (active) | 9.4 µM (inactive) | 4.91 µM (inactive) |  | 
CCOC(=O)/C(C#N)=N\Nc1ccc(-n2c(C)nc3ccccc3c2=O)cc1 | 73.6 µM (inactive) | > 100 µM (inactive) | 49.1 µM (inactive) | 32.7 µM (inactive) | 29.6 µM (inactive) | 61.4 µM (inactive) | 47.6 µM (inactive) | > 100 µM (inactive) |  | > 100 µM (inactive) | 26.5 µM (inactive) | 18.9 µM (inactive) | 73.6 µM (inactive) | > 100 µM (inactive) | 50.4 µM (inactive) | 47.3 µM (inactive) | > 100 µM (inactive) | 23.7 µM (inactive) | 16.5 µM (inactive) | 66.2 µM (inactive)
Cn1c2ccccc2c(=O)c2cccc(C(=O)NC(CCCNC(=N)N)C(=O)O)c21 (stereo unspecified) | > 100 µM (inactive) | > 100 µM (inactive) | > 100 µM (inactive) | > 100 µM (inactive) | > 100 µM (inactive) | > 100 µM (inactive) | > 100 µM (inactive) | > 100 µM (inactive) |  | > 100 µM (inactive) |  | 26.1 µM (inactive) | > 100 µM (inactive) |  | > 100 µM (inactive) | > 100 µM (inactive) | > 100 µM (inactive) | > 100 µM (inactive) | > 100 µM (inactive) | > 100 µM (inactive)
OCCN(C1=NCCN1)/[N+](=C\c1ccccn1)[CH-]c1ccccn1 | > 100 µM (inactive) | > 100 µM (inactive) | > 100 µM (inactive) | > 100 µM (inactive) | > 100 µM (inactive) | > 100 µM (inactive) | > 100 µM (inactive) |  |  | > 100 µM (inactive) | > 100 µM (inactive) | > 100 µM (inactive) | > 100 µM (inactive) | > 100 µM (inactive) | > 100 µM (inactive) | > 100 µM (inactive) | > 100 µM (inactive) | > 100 µM (inactive) | > 100 µM (inactive) | > 100 µM (inactive)
CC(=O)Nc1c(C)cc2c(nc3n2CCC3O)c1[N+](=O)[O-] (stereo unspecified) | > 100 µM (inactive) | > 100 µM (inactive) | > 100 µM (inactive) | > 100 µM (inactive) | > 100 µM (inactive) | > 100 µM (inactive) | > 100 µM (inactive) |  |  | > 100 µM (inactive) | > 100 µM (inactive) | > 100 µM (inactive) | > 100 µM (inactive) | > 100 µM (inactive) | > 100 µM (inactive) | > 100 µM (inactive) | > 100 µM (inactive) | > 100 µM (inactive) | > 100 µM (inactive) | > 100 µM (inactive)
Nc1ccc(COC(O)CN2CCCCC2)cc1[N+](=O)[O-] (stereo unspecified) | > 100 µM (inactive) | > 100 µM (inactive) | > 100 µM (inactive) | > 100 µM (inactive) | > 100 µM (inactive) | > 100 µM (inactive) | > 100 µM (inactive) | > 100 µM (inactive) | > 100 µM (inactive) |  | > 100 µM (inactive) | > 100 µM (inactive) | > 100 µM (inactive) | > 100 µM (inactive) | > 100 µM (inactive) | > 100 µM (inactive) | > 100 µM (inactive) | > 100 µM (inactive) | > 100 µM (inactive) | 
CC(=O)OC1C(O)C(C)OC(OC2C(OC(=O)C3CCC4C(C3)OC3(CC(OC(=O)/C=C/c5ccccc5)C(C)CO3)C43CO3)OC(C)C(O)C2OC(C)=O)C1O (stereo unspecified) | 0.00358 µM (active) | 0.0123 µM (active) | 0.00622 µM (active) | 0.0115 µM (active) | 0.0352 µM (active) | 0.0205 µM (active) | 0.000668 µM (active) | 0.0506 µM (active) | 0.0319 µM (active) | 0.0145 µM (active) | 0.00507 µM (active) |  | 0.0557 µM (active) | 0.00351 µM (active) | 0.721 µM (active) | 0.00269 µM (active) | 0.00849 µM (active) | 0.00468 µM (active) | 0.00418 µM (active) | 0.00463 µM (active)
C[C@@]1(Br)C[C@@](C)(Cl)[C@@H](Br)CC1/C=C/Cl (stereo partly specified) | 19.1 µM (inactive) | 28.6 µM (inactive) | 15.3 µM (inactive) | 15.1 µM (inactive) | 16 µM (inactive) | 17.9 µM (inactive) | 16.9 µM (inactive) | 18.4 µM (inactive) |  | 17.5 µM (inactive) |  | 13.1 µM (inactive) | 17.7 µM (inactive) | 11.1 µM (inactive) | 18.5 µM (inactive) | 15.8 µM (inactive) | 11.1 µM (inactive) | 13.3 µM (inactive) | 13.6 µM (inactive) | 17.6 µM (inactive)
Cc1[nH]c(-c2ccccc2)c(O)c1C(=O)OC12CC3CC(CC(C3)C1)C2 | 17.1 µM (inactive) | 16.3 µM (inactive) | > 100 µM (inactive) | 14.6 µM (inactive) | 12.9 µM (inactive) | 16.5 µM (inactive) | 15 µM (inactive) |  | 6.73 µM (inactive) | 14.7 µM (inactive) | 55.6 µM (inactive) | 13.7 µM (inactive) | 12.1 µM (inactive) | 39 µM (inactive) | 17 µM (inactive) | 17.4 µM (inactive) | 13.9 µM (inactive) | 12.5 µM (inactive) | 14.6 µM (inactive) | 
O=c1[nH]nc(Cc2ccccc2)n1/N=C/c1c(O)ccc2ccccc12 | 82.4 µM (inactive) | 27.2 µM (inactive) | 23.2 µM (inactive) | 17.1 µM (inactive) | 21 µM (inactive) | 35.3 µM (inactive) | 29.2 µM (inactive) | 33 µM (inactive) | 22.3 µM (inactive) |  |  | 20.1 µM (inactive) | 32 µM (inactive) | 43.6 µM (inactive) | 36.1 µM (inactive) | 54.6 µM (inactive) | 24.6 µM (inactive) | 26.4 µM (inactive) | 18.6 µM (inactive) | 54 µM (inactive)
COP1(=S)OCC2CCC[C@@H]2O1 (stereo partly specified) | > 100 µM (inactive) | > 100 µM (inactive) | > 100 µM (inactive) | > 100 µM (inactive) | > 100 µM (inactive) | > 100 µM (inactive) | > 100 µM (inactive) | > 100 µM (inactive) | > 100 µM (inactive) |  | > 100 µM (inactive) | > 100 µM (inactive) | > 100 µM (inactive) | > 100 µM (inactive) | > 100 µM (inactive) | > 100 µM (inactive) | > 100 µM (inactive) | > 100 µM (inactive) | > 100 µM (inactive) | 
C=CCn1cnc2c(O)nc(Nc3ccccc3)nc21 | > 100 µM (inactive) |  |  | > 100 µM (inactive) | > 100 µM (inactive) | > 100 µM (inactive) | > 100 µM (inactive) | > 100 µM (inactive) |  | > 100 µM (inactive) | > 100 µM (inactive) | > 100 µM (inactive) | > 100 µM (inactive) | > 100 µM (inactive) | 50.5 µM (inactive) | > 100 µM (inactive) | > 100 µM (inactive) | 12.8 µM (inactive) | > 100 µM (inactive) | > 100 µM (inactive)
CC1(C)OC(=C(C#N)C#N)C(C#N)=C1/C=C/c1ccncc1 | 1.65 µM (inactive) | 2.35 µM (inactive) | 3.14 µM (inactive) | 1.84 µM (inactive) | 1.75 µM (inactive) | 2.95 µM (inactive) | 3.45 µM (inactive) | 2.08 µM (inactive) | 2.29 µM (inactive) | 4.66 µM (inactive) |  | 2.03 µM (inactive) | 11.4 µM (inactive) | 0.851 µM (active) | 3.24 µM (inactive) | 2.58 µM (inactive) | 2.21 µM (inactive) | 2.03 µM (inactive) | 4.37 µM (inactive) | 1.86 µM (inactive)
Cc1oc2c(c1C)S(=O)(=O)C(C#N)C(c1ccccc1)N2 (stereo unspecified) | 45.4 µM (inactive) | 69.5 µM (inactive) |  | 65.6 µM (inactive) | 40.4 µM (inactive) | 56.6 µM (inactive) | 34.5 µM (inactive) | > 100 µM (inactive) |  | 86.5 µM (inactive) |  | 30.8 µM (inactive) | 44.7 µM (inactive) | 20.4 µM (inactive) | 41.5 µM (inactive) | 29 µM (inactive) | 56 µM (inactive) | 20.6 µM (inactive) | 32.4 µM (inactive) | 43.8 µM (inactive)
Cc1ccc(S(=O)(=O)N2CCCCN(S(=O)(=O)c3ccc(C)cc3)Cc3ccccc3OCCOCCOc3c4cccc3Cc3cccc5c3OCCOCCOc3ccccc3CN(S(=O)(=O)c3ccc(C)cc3)CCCN(S(=O)(=O)c3ccc(C)cc3)Cc3ccccc3OCCOCCOc3c(cccc3C4)Cc3cccc(c3OCCOCCOc3ccccc3C2)C5)cc1 | > 100 µM (inactive) | > 100 µM (inactive) | > 100 µM (inactive) | > 100 µM (inactive) | > 100 µM (inactive) | > 100 µM (inactive) | > 100 µM (inactive) | > 100 µM (inactive) | > 100 µM (inactive) | > 100 µM (inactive) |  | > 100 µM (inactive) | > 100 µM (inactive) | > 100 µM (inactive) | > 100 µM (inactive) | > 100 µM (inactive) | > 100 µM (inactive) | > 100 µM (inactive) | > 100 µM (inactive) | > 100 µM (inactive)

From ChEMBL document CHEMBL1201862, “PubChem BioAssay data set” (2004)
